# In patent US20230158042A1, “COMBINATION CANCER THERAPY WITH PENTAAZA MACROCYCLIC RING COMPLEX AND HORMONE THERAPY AGENT” (Galera Labs, LLC, priority 2020, published 2023):
# Columns and labels:
# MCF7-Cispl-R cells = assay: Cell ROS levels in cisplatin-resistant MCF7 cells; format: cell-based, human; conditions: data not shown
# Method: FIGS. 27a-27c are an image and graphs showing that MnSOD—AcK68/ROS/HIF2α dysregulation directs PanR (multi-therapy resistance to cancer therapeutics). […] In FIG. 27b, ROS was measured in MCF7-Cispl-R cells, compared with MCF7 cells, using an Amplex Red assay. In FIG. 27c, MCF7 and MCF7-MnSOD^K68Q cells were measured by clonogenic cell survival assays, without and with cisplatin exposure, and infected with scrambled (C) or HIF2α shRNA. All experiments were done in triplicate. Error bars are ± 1 SEM. * p < 0.05.
# T47D-HTR cells [1] = assay: Clonogenic cell survival, hydroxy-Tam-resistant T47D cells with GC4419; format: cell-based, human; conditions: 5 µM GC4419 for 5 days; 1 µM hydroxy-Tam
# Method: (§1) Clonogenic cell survival assay. For the clonogenic survival analysis, exponentially growing cells were replated using appropriate dilutions, and clonogenic survival was evaluated after 14 days in regular growth medium. Cells were stained with crystal violet, and colonies of >50 cells were counted and utilized to calculate clonogenic survival^46.
# (§2) To test parameters indicative of oxidative stress, a clonogenic assay with hydroxy-Tam and MnPAM dismutase mimetic treatments was performed. Cells were plated at a density of 50,000 cells per 60-mm dish and treated with 1 µM hydroxy-Tam (Sigma) and 5 µM GC4419 (Galera Therapeutics) for a total of 120 h. This protocol was repeated with a fresh medium change every 24 h for 5 days. On day 6, the cells were trypsinized, counted, and replated in control medium using appropriate dilutions, and clonogenic survival was evaluated.
# [2] = test system: Sirt3^-/--MT-SIRT3^WT allografts; assay: Sirt3-/--MT-SIRT3^WT mammary allograft tumor growth (bioluminescence); format: in vivo; conditions: GC4419 by IP every other day for five weeks; compared to control mice
# Method: (§3) FIGS. 29a-29b are plots showing that the growth of murine mammary allograft tumors is inhibited by exposure to the MnSOD mimic GC4419 much more in cells without expression of deacetylation competent SIRT3. […] Mice were subsequently injected with luciferin potassium (120 mg/kg) every week and signal intensity will be quantified. Error bars represent one SD from the mean.
# (§4) These cell lines were subsequently infected with and selected to express either a SIRT3 wild-type (Sirt3^-/--MT-SIRT3^WT) or deacetylation activity null (Sirt3^-/--MT-SIRT3^DN) gene and a lenti-luciferase to assess tumor growth by bioluminescence. Allograft tumor mice were split into four groups: (1) control, untreated Sirt3^-/--MT-SIRT3^DN; (2) GC4419 treated Sirt3^-/--MT-SIRT3^DN; (3) control, untreated Sirt3^-/--MT-SIRT3^WT; and (4) GC4419 treated Sirt3^-/--MT-SIRT3^WT. […] Accordingly, it was shown that the growth of murine mammary allograft tumors is inhibited by pharmacologically mimicking the activity of deacetylated lysine 68 MnSOD with a manganese pentaazamacrocyclic dismutase mimetic much more in tumors without deacetylation competent SIRT3. Further, this supports that selection of tumors displaying an AcK68 signature could increase response to treatment with a MnPAM dismutase mimetic (or other methods) alone or in combination with other therapies.
# rat model = conditions: cited from earlier work
# LNCaP-ENZR cells = assay: Clonogenic cell survival in LNCaP-ENZR cells; format: cell-based; conditions: GC4419 20 µM for 5 days, in the presence of ENZ
# Method: (§5) FIGS. 21a-21b are a chart and graph showing that pharmacologically mimicking the activity of deacetylated lysine 68 MnSOD with a manganese pentaazamacrocyclic dismutase mimetic both inhibited the growth of LNCaP-ENZR tumors and reversed the enzalutamide resistance in LNCaP-ENZR / LNCaP—MnSOD^K68Q cells and tumors. In FIG. 21a, clonogenic cell survival experiments were performed in LNCaP-ENZR (left two bars) and LNCaP—MnSOD^K68Q (right two bars) treated with ENZ, with or without GC4419 (20 µM) for 5 days. […] Tumor volumes were measured three times a week for 46 days. For each group n=10. Error bars ± 1 SEM. All experiments done in triplicate. **p < 0.01.
# [3] = test system: head-and-neck cancer patients; conditions: patients undergoing chemoradiation therapy, Phase 1 trial; cited from earlier work
# T47D-HTR cells [4] = assay: Ki-67 staining in T47D-HTR cells; format: cell-based, human; conditions: 5 µM GC4419 for 5 days
# Excerpt: With respect to FIG. 16a, the data from FIG. 7i, where MCF7-HTR cells were stained for Ki-67, as well as DAPI, were counted with ImageJ and quantified for average Ki-67 intensity as shown in the bar graph. With respect to FIGS. 16b and 16c, T47D and T47D-HTR cells were stained for Ki-67 as well as DAPI, and particles in the nucleus were counted with ImageJ and quantified for average Ki-67 intensity as shown in the bar graph. In FIGS. 16d and 16e, MCF7-HTR cells, and in FIGS. 16f and 16g, T47D-HTR cells, were treated with 5 µM GC4419 and/or 1 µM 4-hydroxy-Tam for 5 days, and then stained for Ki-67 as well as DAPI. Quantifications of average Ki-67 intensity are shown in the bar graphs. All experiments were done in triplicate. Error bars represent ± 1 SEM. ***p < 0.001. Representative images are shown.
# Cells seeded on glass coverslips were fixed in 4% paraformaldehyde and then blocked with 1% BSA and 10% normal goat serum in 1x PBS. Cells were incubated with anti-Ki-67 (c-bioscience) antibody in 1x PBS followed by incubation with goat anti-rabbit IgG conjugated with Alexa Fluor 647 (Invitrogen) in 1x PBS with 5% goat serum. Cells were washed in 1x PBS, mounted, and imaged with a fluorescence microscope. Fluorescence images were captured using a laser scanning confocal microscope (Nikon A1 R). The paired images in all the figures were collected at the same gain and offset settings. […]
# [5] = test system: Sirt3^-/--MT-SIRT3^DN allografts; assay: Sirt3-/--MT-SIRT3^DN mammary allograft tumor growth (bioluminescence); format: in vivo; conditions: GC4419 by IP every other day for five weeks; compared to control mice
# Method: as §3, §4
# MCF-7-MnSOD^K68Q cells = assay: Clonogenic cell survival after 5 Gy ionizing radiation in MCF-7-MnSOD^K68Q cells; format: cell-based, human; conditions: 5 µM GC4419 for 5 days
# Method: FIGS. 30a-30b are plots showing that mimicking acetylation of MnSOD—K68 with MnSOD^K68Q expression induces ionizing radiation resistance (IRR) in breast cancer cells, and that pharmacologically mimicking the activity of deacetylated lysine 68 MnSOD with a manganese pentaazamacrocyclic dismutase mimetic reverses this IRR. […] All experiments were done in triplicate. Error bars represent ± 1 SEM. ***p < 0.001. Data were analyzed by a t-test.
# [6] = test system: LNCaP-MnSOD^K68Q xenografts; assay: LNCaP-MnSOD^K68Q hind limb xenograft growth in nude mice; format: in vivo; conditions: GC4419 10 mg/kg, once per week; tumor volumes for 46 days
# Method: as §5
# MCF7-HTR cells = assay: Clonogenic cell survival, hydroxy-Tam-resistant MCF7 cells with GC4419; format: cell-based, human; conditions: 5 µM GC4419 for 5 days; 1 µM hydroxy-Tam
# Method: as §1, §2
structure (smiles),measurement,setting,value
[Cl][Mn][Cl].c1cc2nc(c1)CN[C@H]1CCCC[C@@H]1NCCN[C@H]1CCCC[C@@H]1NC2 [GC4419],cell ROS levels,MCF7-Cispl-R cells,decreased cell ROS levels
same,hydroxy-Tam resistance (clonogenic cell survival),T47D-HTR cells [1],became sensitive to hydroxy-Tam
same,tumor growth,[2],little change in tumor growth
same,VEGFr inhibitor-induced pulmonary disease,rat model,attenuate VEGFr inhibitor-induced pulmonary disease
same,tumor cell survival (clonogenic),LNCaP-ENZR cells,significant decrease in tumor cell survival in the presence of ENZ
same,oral mucositis,[3],reduce oral mucositis
same,Ki-67 IHC staining,T47D-HTR cells [4],decreased Ki-67 IHC staining
same,tumor growth,[5],significant decrease in tumor growth
same,"ionizing radiation resistance (IRR) phenotype, clonogenic cell survival",MCF-7-MnSOD^K68Q cells,reversed the IRR phenotype
same,xenograft growth,[6],significant inhibition of xenograft growth
same,hydroxy-Tam resistance (clonogenic cell survival),MCF7-HTR cells,became sensitive to hydroxy-Tam
